This is an account of results in doi:10.1101/2024.10.29.620944v2, “Discovery and isolation of novel capsaicinoids and their TRPV1-related activity” (biorxiv, 2025).

The target of experiment [1] is T1, rat TRPV1 receptor (rTRPV1) (Rattus norvegicus, UniProt O35433).
T1 construct: rat TRPV1 stably expressed under doxycycline control (Tet-on) in Flp-In T-REx-293 cells (irTRPV1-FlpIn293); homotetramer
Briefly: Fluo-4 calcium influx assay, FDSS, irTRPV1-FlpIn293 cells. The experiment is classed as cell-based.

Experiment [2] addresses T1, rat TRPV1 receptor (rTRPV1). As to the kind of experiment: cell-based. The procedure:
Purchased capsaicinoid standards, capsiate (both MedChemExpress), vanillin (Honeywell Fluka) and 4-hydroxy-3-methoxybenzyl alcohol (Alfa Aesar) and AMG-517 (TargetMol, Boston, MA, USA) were all dissolved in DMSO to 10 mM as stock solutions. Stably transfected irTRPV1-FlpIn293 cells with Tet-on system (procedure described in Supplementary Methods 1.3) were grown to confluence in Advanced Dulbecco’s Modified Eagle Medium (Adv-DMEM/F12, #12634) supplemented with 10% FBS, 1% Pen Strep, 1% Glutamax (all Gibco, Thermo Fisher Scientific). Forty-eight hours before the experiment, doxycycline (final concentration 1 μg/mL)(Sigma-Aldrich, St.Luid, Mi., USA) and 10 μM ruthenium red (RR; Merck KGaG, Darmstadt, Germany) were added to the media to induce TRPV1 expression. After 24 hours, the cells were washed and detached with 0.5% trypsin–EDTA in PBS (Gibco). Cells resuspended in blocking media (Adv-DMEM/F12 + 10% FBS + 10 μM RR) were counted and then seeded into a 384-well plate (3674, Corning, Corning, NY, USA) in the amount of 3×10^4 per well. Twenty-four hours after seeding, a 2× Fluo-4 direct dye solution (Invitrogen, Thermo Fisher Scientific), dissolved in HHBS buffer, pH ∼ 7.4, was added to well with cells and incubated for 30 minutes at 37°C and then for 40 minutes at room temperature. Once incubated with the dye, the supernatant was removed using BlueWasher (BlueCatbio NH Inc., Lebanon, NH, USA) and changed to an HHBS + 10 μM sulfinpyrazone (Merck KGaG) solution added by Certus (Fritz Gyger AG, Gwatt, Switzerland), followed by 10 minutes of incubation in FDSS μCell (∼ 30°C; Hamamatsu, Hamamatsu city, Japan). A separate compound plate was prepared using an Echo dispenser 650 (Beckman Coulter Inc.,Brea, CA, USA). The final concentration was reached by adding HHBS + 10 μM sulfinpyrazone as above by Certus. The rTRPV1 activity measurement started by recording the baseline (40 s, sample interval 0.339 s). Then the compounds/compound mixture were transferred to the dedicated wells by tips while the recording was running for the next 5 minutes.

For experiment [3] the target is unchanged. As to the kind of experiment: cell-based. Set-up: species or system irTRPV1-FlpIn293 (HEK293); Fluo-4 calcium influx, FDSS, TRPV1 activation. The procedure:
Purchased capsaicinoid standards, capsiate (both MedChemExpress), vanillin (Honeywell Fluka) and 4-hydroxy-3-methoxybenzyl alcohol (Alfa Aesar) and AMG-517 (TargetMol, Boston, MA, USA) were all dissolved in DMSO to 10 mM as stock solutions. Stably transfected irTRPV1-FlpIn293 cells with Tet-on system (procedure described in Supplementary Methods 1.3) were grown to confluence in Advanced Dulbecco’s Modified Eagle Medium (Adv-DMEM/F12, #12634) supplemented with 10% FBS, 1% Pen Strep, 1% Glutamax (all Gibco, Thermo Fisher Scientific). Forty-eight hours before the experiment, doxycycline (final concentration 1 μg/mL)(Sigma-Aldrich, St.Luid, Mi., USA) and 10 μM ruthenium red (RR; Merck KGaG, Darmstadt, Germany) were added to the media to induce TRPV1 expression. After 24 hours, the cells were washed and detached with 0.5% trypsin–EDTA in PBS (Gibco). Cells resuspended in blocking media (Adv-DMEM/F12 + 10% FBS + 10 μM RR) were counted and then seeded into a 384-well plate (3674, Corning, Corning, NY, USA) in the amount of 3×10^4 per well. Twenty-four hours after seeding, a 2× Fluo-4 direct dye solution (Invitrogen, Thermo Fisher Scientific), dissolved in HHBS buffer, pH ∼ 7.4, was added to well with cells and incubated for 30 minutes at 37°C and then for 40 minutes at room temperature. […]

The mark [4] stands for this setting: Flp-In-T-REx-293; read-out: Top.

Where two headings read alike, the source gives them in different places.

T1 sequence (O35433 whole entry): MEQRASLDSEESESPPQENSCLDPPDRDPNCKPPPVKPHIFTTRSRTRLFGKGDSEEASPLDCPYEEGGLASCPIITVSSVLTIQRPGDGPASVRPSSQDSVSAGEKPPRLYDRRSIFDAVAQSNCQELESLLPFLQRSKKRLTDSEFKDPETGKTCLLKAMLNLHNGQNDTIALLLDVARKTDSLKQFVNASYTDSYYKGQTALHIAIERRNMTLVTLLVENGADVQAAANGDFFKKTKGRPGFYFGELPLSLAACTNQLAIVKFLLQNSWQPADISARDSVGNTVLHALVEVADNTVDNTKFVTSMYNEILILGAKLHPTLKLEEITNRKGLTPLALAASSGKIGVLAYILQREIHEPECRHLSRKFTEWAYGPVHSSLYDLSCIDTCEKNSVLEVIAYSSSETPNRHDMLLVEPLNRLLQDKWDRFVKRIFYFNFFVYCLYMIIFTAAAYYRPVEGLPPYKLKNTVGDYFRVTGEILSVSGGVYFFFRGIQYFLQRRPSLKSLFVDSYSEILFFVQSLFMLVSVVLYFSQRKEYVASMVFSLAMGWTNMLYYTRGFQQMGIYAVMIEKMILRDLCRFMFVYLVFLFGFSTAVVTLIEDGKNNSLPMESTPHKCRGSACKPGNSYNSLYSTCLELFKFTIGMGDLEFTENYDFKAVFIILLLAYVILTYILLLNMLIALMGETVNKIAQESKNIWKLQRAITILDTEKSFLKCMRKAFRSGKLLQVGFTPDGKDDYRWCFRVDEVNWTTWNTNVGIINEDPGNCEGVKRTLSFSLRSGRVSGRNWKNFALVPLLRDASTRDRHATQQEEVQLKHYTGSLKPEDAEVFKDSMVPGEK

Regarding `COc1cc(CNC(=O)CCCCCCC(C)C)ccc1O` [compound 2, Dihydrocapsaicin], the EC50 in experiment [1] (read-out: EC50) is 50 nM.
For the compound `COc1cc(CNC(=O)CCCCCCCC(C)C)ccc1O` [compound 4, Homodihydrocapsaicin I], the EC50 in experiment [1] (read-out: EC50) is 320 nM.
Regarding `COc1cc(CNC(=O)CC/C=C/C(C)C)ccc1O` [compound 10, Nornorcapsaicin], in experiment [1] (read-out: EC50), the EC50 amounted to 810 nM. In experiment [2] (setting [4]), the Emax is 77.8%.
As to `COc1cc(CNC(=O)CCCCCC(C)C)ccc1O` [compound 11, Nordihydrocapsaicin], the EC50 in experiment [2] was 53.4 nM.
`CCCCCCCC(=O)NCc1ccc(O)c(OC)c1` [compound 13, N-vanillyl octanamide]: the EC50 in experiment [1] (read-out: EC50) was 150 nM. In experiment [2] (setting [4]), the Emax amounted to 93.7%.
Consider `CCCCCCCCCC(=O)NCc1ccc(O)c(OC)c1` [compound 14, N-Vanillyldecanamide], for which the EC50 in experiment [1] (read-out: EC50) is 200 nM. The Emax in experiment [2] (setting [4]) stood at 114%.
For `COc1cc(CNC(=O)CC/C=C/C=C/C(C)C)ccc1O` [compound 16, N-vanillyl-4E,6E-dien-8-methylnonanamide], in experiment [1] (read-out: EC50), the EC50 was 140 nM. Besides, in experiment [2] (setting [4]), the Emax turned out to be 94.3%.
Take `CCCCCCCCC(=O)NCc1ccc(O)c(OC)c1` [compound 17, Nonivamide]: in experiment [2] (Flp-In-T-REx-293, read-out: Top), the Emax was determined as 105%.
As to `CCCCCCCC/C=C\CCCCCCCC(=O)NCc1ccc(O)c(OC)c1` [compound 20, Olvanil], the EC50 in experiment [1] (read-out: EC50) turned out to be 120 nM. In experiment [2] (setting [4]), the Emax was 40.4%.
The matching figures for `COc1cc(CNC(=O)CCCC/C=C/C(C)CO)ccc1O` (stereo not drawn) [compound 22, ω-Hydroxycapsaicin]: 5560 nM and 90%.
`COc1cc(CNC(=O)CCCC/C=C/C(C)C)cc(-c2cc(CNC(=O)CCCCCCC(C)C)cc(OC)c2O)c1O` [compound 23, 6″,7″-Dihydro-5′,5‴-dicapsaicin]: the EC50 in experiment [1] (agonist, HHBS pH ~7.4, ~30 °C, unreliable (sample 79.94% pure, trace monomers may inflate the potency), read-out: EC50) amounted to 10270 nM; in experiment [2], 10300 nM. Moreover, the Emax in experiment [2] (setting [4]) was determined as 90.7%.
As to `COc1cc(CNC(=O)CCCC/C=C/C(C)C)ccc1O[C@@H]1O[C@H](CO)[C@@H](O)[C@H](O)[C@H]1O` [compound 24, Capsaicin β-D-glucopyranoside], the EC50 in experiment [1] (read-out: EC50) came to 4690 nM. For the same compound, in experiment [2] (setting [4]), the Emax was 102%.
Consider `CCCCCCC(=O)NCc1ccc(O)c(OC)c1` [compound 26, N-Heptanoate vanillylamide], for which, in experiment [1] (read-out: EC50), the EC50 was determined as 1810 nM. Moreover, the Emax in experiment [2] (setting [4]) is 114%.
For `COc1cc(CNC(=O)CCCCC(C)C)ccc1O` [compound 27, Nornordihydrocapsaicin], in that order: 1040 nM and 94.8%.
The matching figures for `COc1cc(CNC(=O)CC(C)C)ccc1O` [compound 30, N-isovalerylvanillylamin]: 2840 nM and 80%.
In the case of `COc1cc(CNC(=O)CCCCCC(=O)C(C)C)ccc1O` [compound 31, N-(4-Hydroxy-3-methoxybenzyl)-8-methyl-7-oxononanamide], the EC50 in experiment [1] (read-out: EC50) amounted to 560 nM; in experiment [2], 602 nM. In experiment [2] (setting [4]), the Emax was 84.2%.
Regarding `COc1cc(CNC(=O)CCCCC2OC2C(C)C)ccc1O` (stereo not drawn) [compound 32, Epicapsaicin], the values for the EC50 in experiment [1] (read-out: EC50) and in experiment [2] were 600 nM and 1110 nM, respectively. Further, the Emax in experiment [2] (setting [4]) came to 110%.
Consider `COc1cc(CNC(=O)CCCCCCCC(C)O)ccc1O` (stereo not drawn) [compound 33, N-vanillyl-9-hydroxydecanamide], for which the EC50 in experiment [1] (read-out: EC50) came to 6330 nM. The Emax in experiment [2] (setting [4]) is 96.5%.
With `COc1cc(CNC(=O)CCCCCC(O)C(C)C)ccc1O` (stereo not drawn) [compound 34, N-vanillyl-7-hydroxy-8-methylnonamide], the EC50 in experiment [1] (read-out: EC50) worked out at 1460 nM. In addition, the Emax in experiment [2] (setting [4]) was found to be 90.6%.
In the case of `COc1cc(CNC(=O)C=CC=CC(C)C)ccc1O` [compound 35, N-vanillyl 6-Methyl-2,4-heptadienamide], the EC50 in experiment [1] (read-out: EC50) was 1200 nM. Moreover, the Emax in experiment [2] (setting [4]) amounted to 77.8%.
As to `COc1cc(CNC(=O)CCCC/C=C/C(C)C)cc(-c2cc(CNC(=O)CCCC/C=C/C(C)C)cc(OC)c2O)c1O` [compound 38, 5,5’-dicapsaicin], the EC50 in experiment [1] (agonist, HHBS pH ~7.4, ~30 °C, unreliable (trace monomers may inflate the potency)) is recorded as 4.46E-06 (95% CI 3.848e-006 to 5.265e-006) M. For the same compound, the Emax in experiment [2] (setting [4]) came out at 83.3%.
On to `COc1cc(COC(=O)CCCC/C=C/C(C)C)ccc1O` [compound 39, capsiate], for which the EC50 in experiment [3] came to 491000 nM.
